Measurements as given in ChEMBL document CHEMBL1201862, “PubChem BioAssay data set” (2004).
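Five compound concentrations were applied to cells in 96-well plates for 48 hours; endpoints were derived by simple linear interpolation of the resulting dose-response curve. At the GI50, growth is halved.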 The source made the active and inactive calls. Rule as the data show it: active = GI50 up to about 1.1 µM and inactive = higher.

Legend:
Assay in all cases: NCI-60 cell line screen, 48 h
786-0 = system: 786-0
A498 = system: A498
A549 = system: A549
ACHN = system: ACHN
CAKI-1 = system: CAKI-1
COLO 205 = system: COLO 205
DLD-1 = system: DLD-1
DMS-114 = system: DMS-114
DMS-273 = system: DMS-273
EKVX = system: EKVX
HCC 2998 = system: HCC 2998
HCT-116 = system: HCT-116
HCT-15 = system: HCT-15
HOP-18 = system: HOP-18
HOP-62 = system: HOP-62
HT-29 = system: HT-29
IGROV-1 = system: IGROV-1
KM-20L2 = system: KM-20L2
KM12 = system: KM12
LXFL 529 = system: LXFL 529
M14 = system: M14
M19-MEL = system: M19-MEL
Malme-3M = system: Malme-3M
NCI-H226 = system: NCI-H226
NCI-H23 = system: NCI-H23
NCI-H460 = system: NCI-H460
NCI-H522 = system: NCI-H522
OVCAR-3 = system: OVCAR-3
OVCAR-4 = system: OVCAR-4
OVCAR-5 = system: OVCAR-5
RPMI-8226 = system: RPMI-8226
RXF 393 = system: RXF 393
RXF 631 = system: RXF 631
SF-268 = system: SF-268
SF-295 = system: SF-295
SF-539 = system: SF-539
SK-MEL-28 = system: SK-MEL-28
SK-MEL-2 = system: SK-MEL-2
SK-OV-3 = system: SK-OV-3
SN12C = system: SN12C
SNB-19 = system: SNB-19
SNB-75 = system: SNB-75
SNB-78 = system: SNB-78
SW-620 = system: SW-620
U-251 = system: U-251
UACC-257 = system: UACC-257
UACC-62 = system: UACC-62
UO-31 = system: UO-31
CCRF-CEM = system: CCRF-CEM
HL-60 = system: HL-60
HOP-92 = system: HOP-92
K562 = system: K562
LOX IMVI = system: LOX IMVI
MOLT-4 = system: MOLT-4
OVCAR-8 = system: OVCAR-8
SK-MEL-5 = system: SK-MEL-5
TK-10 = system: TK-10
XF498 = system: XF498

## Cc1ccc(S(=O)(=O)N/N=C(/CC(=O)c2c(C)[n+]([O-])c3ccccc3[n+]2[O-])C(=O)Nc2ccc(C)c(C)c2)cc1
786-0
  GI50: > 100 µM (inactive)
A498
  GI50: > 100 µM (inactive)
A549
  GI50: > 100 µM (inactive)
ACHN
  GI50: 25.1 µM (inactive)
CAKI-1
  GI50: > 100 µM (inactive)
COLO 205
  GI50: 34.7 µM (inactive)
DLD-1
  GI50: > 100 µM (inactive)
DMS-114
  GI50: 19.6 µM (inactive)
DMS-273
  GI50: 44.8 µM (inactive)
EKVX
  GI50: > 100 µM (inactive)
HCC 2998
  GI50: 90.4 µM (inactive)
HCT-116
  GI50: 38.2 µM (inactive)
HCT-15
  GI50: 48.6 µM
HOP-18
  GI50: > 100 µM (inactive)
HOP-62
  GI50: > 100 µM (inactive)
HT-29
  GI50: 50.9 µM (inactive)
IGROV-1
  GI50: 62.8 µM (inactive)
KM-20L2
  GI50: > 100 µM (inactive)
KM12
  GI50: 28.2 µM (inactive)
LXFL 529
  GI50: > 100 µM (inactive)
M14
  GI50: > 100 µM (inactive)
M19-MEL
  GI50: 17.9 µM (inactive)
Malme-3M
  GI50: > 100 µM (inactive)
NCI-H226
  GI50: > 100 µM (inactive)
NCI-H23
  GI50: > 100 µM (inactive)
NCI-H460
  GI50: 41.9 µM (inactive)
NCI-H522
  GI50: 70.1 µM (inactive)
OVCAR-3
  GI50: 16.5 µM (inactive)
OVCAR-4
  GI50: 33 µM (inactive)
OVCAR-5
  GI50: 88.7 µM (inactive)
RPMI-8226
  GI50: 29.6 µM (inactive)
RXF 393
  GI50: > 100 µM (inactive)
RXF 631
  GI50: > 100 µM (inactive)
SF-268
  GI50: > 100 µM (inactive)
SF-295
  GI50: > 100 µM (inactive)
SF-539
  GI50: > 100 µM (inactive)
SK-MEL-28
  GI50: > 100 µM (inactive)
SK-MEL-2
  GI50: > 100 µM (inactive)
SK-OV-3
  GI50: > 100 µM (inactive)
SN12C
  GI50: 34 µM (inactive)
SNB-19
  GI50: > 100 µM (inactive)
SNB-75
  GI50: > 100 µM (inactive)
SNB-78
  GI50: > 100 µM (inactive)
SW-620
  GI50: 33.7 µM (inactive)
U-251
  GI50: 28.5 µM (inactive)
UACC-257
  GI50: 87.1 µM (inactive)
UACC-62
  GI50: 79.8 µM (inactive)
UO-31
  GI50: > 100 µM (inactive)

## CCN(CC)CCCNC(=O)c1ccc([N+](=O)[O-])cc1O
786-0
  GI50: > 100 µM (inactive)
A498
  GI50: > 100 µM (inactive)
A549
  GI50: > 100 µM (inactive)
ACHN
  GI50: > 100 µM (inactive)
CAKI-1
  GI50: > 100 µM (inactive)
CCRF-CEM
  GI50: > 100 µM (inactive)
COLO 205
  GI50: > 100 µM (inactive)
DLD-1
  GI50: > 100 µM (inactive)
DMS-114
  GI50: > 100 µM (inactive)
DMS-273
  GI50: > 100 µM (inactive)
EKVX
  GI50: > 100 µM (inactive)
HCC 2998
  GI50: > 100 µM (inactive)
HCT-15
  GI50: > 100 µM
HL-60
  GI50: > 100 µM (inactive)
HOP-62
  GI50: > 100 µM (inactive)
HOP-92
  GI50: > 100 µM (inactive)
HT-29
  GI50: > 100 µM (inactive)
IGROV-1
  GI50: > 100 µM (inactive)
K562
  GI50: > 100 µM (inactive)
KM-20L2
  GI50: > 100 µM (inactive)
KM12
  GI50: > 100 µM (inactive)
LOX IMVI
  GI50: > 100 µM (inactive)
LXFL 529
  GI50: > 100 µM (inactive)
M14
  GI50: > 100 µM (inactive)
MOLT-4
  GI50: > 100 µM (inactive)
Malme-3M
  GI50: > 100 µM (inactive)
NCI-H226
  GI50: > 100 µM (inactive)
NCI-H23
  GI50: > 100 µM (inactive)
NCI-H460
  GI50: > 100 µM (inactive)
NCI-H522
  GI50: > 100 µM (inactive)
OVCAR-3
  GI50: > 100 µM (inactive)
OVCAR-4
  GI50: > 100 µM (inactive)
OVCAR-5
  GI50: > 100 µM (inactive)
OVCAR-8
  GI50: > 100 µM (inactive)
RXF 393
  GI50: > 100 µM (inactive)
RXF 631
  GI50: > 100 µM (inactive)
SF-268
  GI50: > 100 µM (inactive)
SF-295
  GI50: > 100 µM (inactive)
SF-539
  GI50: > 100 µM (inactive)
SK-MEL-28
  GI50: > 100 µM (inactive)
SK-MEL-2
  GI50: > 100 µM (inactive)
SK-MEL-5
  GI50: > 100 µM (inactive)
SK-OV-3
  GI50: > 100 µM (inactive)
SN12C
  GI50: > 100 µM (inactive)
SNB-19
  GI50: > 100 µM (inactive)
SNB-75
  GI50: > 100 µM (inactive)
SNB-78
  GI50: > 100 µM (inactive)
SW-620
  GI50: > 100 µM (inactive)
TK-10
  GI50: > 100 µM (inactive)
U-251
  GI50: > 100 µM (inactive)
UACC-257
  GI50: > 100 µM (inactive)
UACC-62
  GI50: > 100 µM (inactive)
UO-31
  GI50: > 100 µM (inactive)

## CCCCN(CCCC)C(=O)/C(CC(=O)c1cccc2ccccc12)=N\NC(=O)c1cc2ccccc2cc1O
786-0
  GI50: 20.3 µM (inactive)
A549
  GI50: 21.1 µM (inactive)
ACHN
  GI50: 16.9 µM (inactive)
CCRF-CEM
  GI50: 3.94 µM (inactive)
COLO 205
  GI50: 23 µM (inactive)
DLD-1
  GI50: 23.4 µM (inactive)
EKVX
  GI50: 21.6 µM (inactive)
HCC 2998
  GI50: 16.3 µM (inactive)
HCT-116
  GI50: 13.1 µM (inactive)
HL-60
  GI50: 3.2 µM (inactive)
HOP-62
  GI50: 20 µM (inactive)
HOP-92
  GI50: 19.2 µM (inactive)
HT-29
  GI50: 23.8 µM (inactive)
IGROV-1
  GI50: 15.3 µM (inactive)
KM-20L2
  GI50: 22.1 µM (inactive)
KM12
  GI50: 24.8 µM (inactive)
LOX IMVI
  GI50: 13 µM (inactive)
LXFL 529
  GI50: 27.3 µM (inactive)
M14
  GI50: 21.9 µM (inactive)
M19-MEL
  GI50: 20.4 µM (inactive)
MOLT-4
  GI50: 7.83 µM (inactive)
Malme-3M
  GI50: 16.9 µM (inactive)
NCI-H226
  GI50: 19.9 µM (inactive)
NCI-H23
  GI50: 19.9 µM (inactive)
NCI-H460
  GI50: 18.4 µM (inactive)
OVCAR-3
  GI50: 14.4 µM (inactive)
OVCAR-4
  GI50: 25.6 µM (inactive)
OVCAR-5
  GI50: 30.3 µM (inactive)
OVCAR-8
  GI50: 16.4 µM (inactive)
RPMI-8226
  GI50: 3.52 µM (inactive)
RXF 393
  GI50: 24.8 µM (inactive)
RXF 631
  GI50: 26.7 µM (inactive)
SF-268
  GI50: 11.2 µM (inactive)
SF-295
  GI50: 18.3 µM (inactive)
SK-MEL-28
  GI50: 26 µM (inactive)
SK-MEL-2
  GI50: 14.1 µM (inactive)
SK-MEL-5
  GI50: 13.5 µM (inactive)
SN12C
  GI50: 18.5 µM (inactive)
SNB-19
  GI50: 26.1 µM (inactive)
SNB-75
  GI50: 13.4 µM (inactive)
SNB-78
  GI50: 24.7 µM (inactive)
SW-620
  GI50: 32 µM (inactive)
TK-10
  GI50: 40.1 µM (inactive)
U-251
  GI50: 19.3 µM (inactive)
UACC-257
  GI50: 21.1 µM (inactive)
UACC-62
  GI50: 6.85 µM (inactive)
UO-31
  GI50: 10.1 µM (inactive)
XF498
  GI50: 20 µM (inactive)
